Test results: publication PMC9233675, “Ru(II) photocages enable precise control over enzyme activity with red light” (Nature Communications, 2022)
Where “and” joins values, the source holds several entries; their conditions need not be identical. Equal entries are not always repeated. Where two headings read alike, the source gives them in different places.

Key:
[1] = system: cytochrome P450 enzymes in pooled human liver microsomes; assay: Inhibition of cytochrome P450 enzymes in pooled human liver microsomes (phLM); format: biochemical; conditions: human, pooled human liver microsomes, pH 7.8, probe 7-benzoyloxy-4-trifluoromethylcoumarin, 50 µM; Dark; conversion of 7-benzoyloxy-4-trifluoromethylcoumarin
Text: (§1) Pooled human liver microsomes were used to test the potential impact of the inhibitors on multiple polymorphisms of highly promiscuous, drug metabolizing CYPs[27]. There are more than 10 different CYPs in this preparation, and the use of pooled microsomes ensures that genetic variability in CYPs is represented. […] This is notable, as the liver CYPs have evolved to bind the widest possible variety of molecules.
(§2) Commercial preparations of pooled human liver microsomes come from 50 individuals, providing representation of biologically relevant CYP variants. Compounds were screened for inhibition of cytochrome P450 enzymes in phLMs using a 96-well kinetic assay. […] Compound stocks were diluted in dose–response, and added in 100 mM potassium phosphate buffer pH 7.8 with 50 µM 7-benzoyloxy-4-trifluoromethylcoumarin (Corning, prepared as a 10 mM DMSO stock) and 16 µg of phLMs (XenoTech, prepared as 20 mg protein/mL suspended in 250 mM sucrose) per well (n = 3). The compounds were incubated for 5 min in the absence of light at 25 °C. The 96-well plate was then either protected from light or irradiated with red light for 1 h (660 nm, 58.7 J/cm^2). Enzymatic turnover was initiated upon addition of NADPH (TCI, prepared immediately prior to addition) at a concentration 1.2 mM per well. To determine background fluorescence from the assay, NADPH was omitted from several control wells. The reactions were immediately placed in a SpectraFluor Plus plate reader (Tecan) preheated to 37 °C, and fluorescence measurements taken every 3 min for 120 min with excitation of 435 nm and emission of 525 nm. Fluorescence measurements in the […], and the data was processed with GraphPad Prism 6. The linear portion of the signal for each dose point with respect to time was first fitted to a line to determine the rate. The resulting slope of these lines was then plotted against the logarithmic concentration of the study compound to provide a dose–response curve.

[2] = molecular target: T1, CYP1B1 S269A (Homo sapiens, UniProt Q16678, S269A); assay: In cell CYP1B1 activity assay, S269A variant; conditions: for logSI S269A: log of the ratio of IC50 values mutant vs WT (Fig. 3c)
T1 sequence (Q16678 1-543 S269A): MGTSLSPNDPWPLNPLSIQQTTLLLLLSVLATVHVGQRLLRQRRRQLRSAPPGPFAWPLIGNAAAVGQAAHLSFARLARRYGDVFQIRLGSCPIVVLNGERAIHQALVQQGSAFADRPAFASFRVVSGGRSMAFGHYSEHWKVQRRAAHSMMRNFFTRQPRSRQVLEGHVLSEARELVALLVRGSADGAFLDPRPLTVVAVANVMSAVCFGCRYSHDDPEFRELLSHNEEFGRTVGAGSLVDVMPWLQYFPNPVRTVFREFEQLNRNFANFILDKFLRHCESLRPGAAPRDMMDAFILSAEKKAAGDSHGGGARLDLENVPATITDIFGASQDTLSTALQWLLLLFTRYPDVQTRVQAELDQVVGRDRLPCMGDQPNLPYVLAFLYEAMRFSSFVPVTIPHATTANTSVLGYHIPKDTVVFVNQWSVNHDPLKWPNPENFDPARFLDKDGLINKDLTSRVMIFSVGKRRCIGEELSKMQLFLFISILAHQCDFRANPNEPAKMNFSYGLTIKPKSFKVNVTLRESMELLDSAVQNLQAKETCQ
Text: Site directed mutagenesis was used to probe the importance of specific active-site contacts identified through the structural assessment (Fig. 3a, b) and simulations. In all cases, conservative mutations were made to maintain polar or hydrophobic character and approximate size. The aromatic residues that frame the inhibitor binding site, Phe143 and Phe231, were mutated to Leu to determine the importance of the π interactions. In addition, the Ser127 residue, located in the upper corner of the active site on the B-C loop, was chosen for mutation based on the simulations. This amino acid transiently contacts the inhibitors, but also forms a hydrogen bond with Asp326 of the I-helix, and thus may impact the position of this helix with regards to the B-C loop. […] Rather than directly mutating these residues in the I-helix, neighboring residues Gln332 and Asp333 were targeted, with the hope of interrupting amino acid interactions that position the helix within the active site.
The ratio of IC50 values for the WT vs. the mutant are shown in Fig. 3c and reflects the importance of the specific contact; the log of the value is used to aid in visualization.
(§3) Cell lines were seeded onto Geltrex coated 96-well plates at 40,000 cells/well, and grown overnight in DMEM media containing 1 μg/mL tetracycline. The media was then replaced with Opti-MEM supplemented with 2% FBS and 1 μg/mL tetracycline. Compounds were serially diluted in Opti-MEM supplemented with 2% FBS and 1 μg/mL tetracycline and an equal volume of compound added to the cells (n = 3). Following a 1 h incubation, resorufin ethyl ether (REE; for CYP1B1 and 1A1) or dibenzylfluorescein (DBF; for 19A1) was added to the cells for a total concentration of 5 μM for REE and 1 μM for DBF. […] Dose–response curves were generated in Prism and normalized using the no-compound control (set as 100% activity) and the no-cell control (set as 0% activity; this value in the raw data reflects the background fluorescence of the dye alone).

[3] = Stability of compounds in rat liver microsomes; conditions: for Remaining, % (NCF=60min): rat liver microsomes, no co-factor (no NADPH); for CLint scaled / Remaining, % (T=60min) / half-life / microsomal CLint: rat, liver microsomes
[4] = Stability of compounds in human liver microsomes; conditions: for Remaining, % (NCF=60min): human liver microsomes, no co-factor (no NADPH); for CLint scaled / Remaining, % (T=60min) / half-life / microsomal CLint: human, liver microsomes
[5] = molecular target: T2, CYP1A1 (Homo sapiens, UniProt P04798); assay: In cell activity assay for CYP1A1 (7-ethoxyresorufin conversion, HEK293 T-Rex cells); conditions: for % Enzyme Activity: CYP1A1, dark; for SI (1B1:1A1): ratio of IC50 CYP1A1 to CYP1B1, for complexes 4–6 the IC50 (light) values were used; for IC50: REE
T2 sequence (P04798 1-512): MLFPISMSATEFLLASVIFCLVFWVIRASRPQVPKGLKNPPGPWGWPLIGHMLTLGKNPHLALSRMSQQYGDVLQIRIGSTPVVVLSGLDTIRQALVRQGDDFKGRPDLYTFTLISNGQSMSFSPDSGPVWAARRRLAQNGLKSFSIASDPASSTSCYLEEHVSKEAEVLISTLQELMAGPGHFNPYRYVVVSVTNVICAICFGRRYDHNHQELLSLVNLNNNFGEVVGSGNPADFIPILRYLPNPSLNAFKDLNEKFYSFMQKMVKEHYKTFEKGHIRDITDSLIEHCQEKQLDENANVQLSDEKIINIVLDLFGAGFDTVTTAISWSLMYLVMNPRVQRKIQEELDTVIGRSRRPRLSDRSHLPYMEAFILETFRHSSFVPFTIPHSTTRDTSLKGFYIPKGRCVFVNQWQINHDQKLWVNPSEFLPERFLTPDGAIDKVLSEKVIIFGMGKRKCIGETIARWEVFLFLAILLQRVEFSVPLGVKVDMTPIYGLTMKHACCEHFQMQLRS
Text: A stable HEK cell line was created with CYP1B1 expression under the control of tetracycline to facilitate regulated and titratable expression (see the Methods section for more details). A cell line was also created for CYP1A1 as a counter screen to evaluate selectivity. […] The fluorogenic substrate, 7-ethoxyresorufin (REE), is a validated substrate for both CYPs and was used in both assays. Cytochrome P450 oxidoreductase (POR) is the required reductase partner for CYPs, and was also overexpressed in these systems to improve catalytic efficiency and the resulting signal for the assay.
Both the CYP and POR expression was under the control of the TetO2 inducible CMV promoter[26].
Cell lines were generated in the HEK293 T-Rex cell line. Following transfection, cells were selected with 500 μg/mL Zeocin, and 7.5 μg/mL Blasticidin to create a stable pool. Inducible expression of CYP and POR was confirmed by immunoblot. […] The lines were maintained with 250 μg/mL Zeocin and 7.5 μg/mL Blasticidin to ensure continued selective pressure.
as §3
For the light-activated compounds, the experiment was modified as follows: Cells were seeded and grown overnight as described above. Media was replaced with L-15 containing 1 μg/mL tetracycline; L-15 media was used in place of opti-MEM™ to maintain CO2 outside the incubator, and to prevent cellular damage from light. Compounds were serially diluted in L-15 with 1 μg/mL tetracycline and added to the cells followed by a 1 h incubation. […] REE or DBF was added as described above.

[6] = system: cytochrome P450 enzymes in phLMs; assay: Inhibition of cytochrome P450 enzymes in pooled human liver microsomes (phLM); format: biochemical; conditions: for enzyme activity pHLM: dark, scale 0–100; for SI (1B1:phLM): ratio of IC50 phLM to CYP1B1, for complexes 4–6 IC50 (light)
Text: as §1, §2

[7] = Dark, conversion of 7-benzoyloxy-4-trifluoromethylcoumarin, read-out: IC50 phLM Dark
[8] = Light: 660 nm, 58.7 J/cm^2, read-out: IC50 phLM Light
[9] = read-out: IC50 CYP1A1 Dark, Dark, n = 3
[10] = read-out: IC50 CYP1A1 Light, Light: 660 nm, 58.7 J/cm^2

SMILES | IC50 [1] | logSI S269A [2] | Remaining, % (NCF=60min) [3] | CLint scaled [3] | Remaining, % (T=60min) [3] | half-life [3] | microsomal CLint [3] | Remaining, % (NCF=60min) [4] | CLint scaled [4] | Remaining, % (T=60min) [4] | half-life [4] | % Enzyme Activity ([5]; Log Conc 0.045757) | % Enzyme Activity ([5]; Log Conc 0.522879) | % Enzyme Activity ([5]; Log Conc 1) | % Enzyme Activity ([5]; Log Conc -0.43136) | % Enzyme Activity ([5]; Log Conc -0.90849) | % Enzyme Activity ([5]; Log Conc -1.38561) | % Enzyme Activity ([5]; Log Conc -1.86273) | SI (1B1:phLM) [6] | SI (1B1:1A1) [5] | other results
COc1ccc(C=Cc2ccncc2)c(OC)c1 [Compound 3] | 0.334 µM | 0.8 | 108.6% | 241 mL/min/kg | 1.4% | 10.4 min | 134 µL/min/mg | 92.1% | 155 mL/min/kg | 0.6% | 8.07 min | 84.2841% and 102.432% and 105% | 59.4676% and 67.9492% and 76.5686% | 14.8056% and 20.3883% and 24.2847% | 103.457% and 112.898% and 125.706% | 103.209% and 120.806% and 117.825% | 95.9953% and 108.125% and 129.481% | 106.428% and 95.389% and 98.1832% | – | – | microsomal CLint [4]: 172 µL/min/mg; % Enzyme Activity ([5]; Log Conc 1.47712): 0.5263% and 0.2508% and 0.3665%
COc1ccc(/C=C/c2cc[n+]([Ru-4]345([n+]6ccccc6-c6cccc([n+]63)-c3cccc[n+]34)[n+]3c(cc(C(=O)[O-])c4ccccc43)-c3cc(C(=O)[O-])c4ccccc4[n+]35)cc2)c(OC)c1 [Compound 6] | – | – | – | – | – | – | – | – | – | – | – | – | – | 101.782% and 110.804% | – | – | – | – | 4300 | >100,000 | IC50 [6, 7]: ~30 µM; IC50 [6, 8]: 1.28 µM; enzyme activity pHLM ([6]; Log conc 0.273001): 89.9976; enzyme activity pHLM ([6]; Log conc 0.875061): 84.6565; enzyme activity pHLM ([6]; Log conc 1.47712): 45.9092; enzyme activity pHLM ([6]; Log conc -0.329059): 93.178; enzyme activity pHLM ([6]; Log conc -0.931119): 88.2981; enzyme activity pHLM ([6]; Log conc -1.53318): 91.697; enzyme activity pHLM ([6]; Log conc -2.13524): 93.7121; % Enzyme Activity ([5]; Log Conc 0.39794): 91.0522% and 92.8898%; % Enzyme Activity ([5]; Log Conc -0.20412): 95.4892% and 97.456%; % Enzyme Activity ([5]; Log Conc -0.80618): 104.418% and 113.985%; % Enzyme Activity ([5]; Log Conc -1.40824): 109.608% and 108.283%; % Enzyme Activity ([5]; Log Conc -2.0103): 108.509% and 109.086%; % Enzyme Activity ([5]; Log Conc -2.61236): 100.346% and 103.098%; % Enzyme Activity ([5]; Log Conc -3.21442): 102.096% and 97.9039%; IC50 [5, 9]: > 30 µM; IC50 [5, 10]: > 30 µM
COc1cc(/C=C/c2ccc(OC)cc2OC)cc(OC)c1 [Compound 1, reference compound] | 11 µM | 0.3 | 63.7% | – | – | – | – | 77.1% | – | – | – | 58.9151% and 62.8214% and 61.5139% | 20.9441% and 25.477% and 27.5679% | 2.088% and 2.407% and 5.1678% | 94.4495% and 93.088% and 89.9544% | 109.334% and 103.31% and 104.553% | 108.032% and 102.127% and 103.391% | 103.764% and 105.887% and 103.748% | – | – | % Enzyme Activity ([5]; Log Conc -2.33985): 105.601% and 99.1121% and 95.2869%
COc1ccc(/C=C/c2cc[n+]([Ru-4]345([n+]6ccccc6-c6cccc([n+]63)-c3cccc[n+]34)[n+]3c(cc(C(=O)[O-])c4ccccc43)-c3cc(C(=O)[O-])c4ccccc4[n+]35)cn2)c(OC)c1 [Compound 5] | – | – | – | – | – | – | – | – | – | – | – | – | – | – | – | – | – | – | ∼1750 | 460 | IC50 [6, 7]: > 30 µM; IC50 [6, 8]: ~30 µM; impact on CYP1A1 ([5]; at concentrations ≥10 μM (so in the source)): no impact; IC50 [5, 9]: 40.9 µM; IC50 [5, 10]: 7.82 µM
COc1ccc(/C=C/c2ccncn2)c(OC)c1 [Compound 2] | 1.18 µM | 0 | 47.1% | 369 mL/min/kg | 0.3% | 6.75 min | 205 µL/min/mg | 96.5% | 181 mL/min/kg | 0.4% | 6.9 min | 97.5755% and 125.129% and 102.858% | 79.4229% and 93.0687% and 81.8125% | 15.2494% and 25.1537% and 27.5852% | 110.341% and 133.598% and 109.681% | 118.484% and 126.806% and 121.555% | 117.981% and 113.967% and 112.29% | 107.668% and 117.038% and 124.375% | 16 | 175 | IC50 [2]: 0.073 µM; Ratio IC50 (mutant)/ IC50 (WT), S269A [2]: 1; microsomal CLint [4]: 201 µL/min/mg; % Enzyme Activity ([5]; Log Conc -2.33985): 98.3615% and 101.034% and 100.604%
